Measured values published in patent publication US20060063751A1, “Novel fused heterocycles and uses thereof” (AstraZeneca AB, priority 2003, published 2006).

Biological target: T1, recombinant HsEg5 motor domain (amino acids 1-369-8His) (Homo sapiens, UniProt P52732)
T1 construct: Enzyme was recombinant HsEg5 motor domain (amino acids 1-369-8His); 8His (C)
T1 sequence (P52732 1-369): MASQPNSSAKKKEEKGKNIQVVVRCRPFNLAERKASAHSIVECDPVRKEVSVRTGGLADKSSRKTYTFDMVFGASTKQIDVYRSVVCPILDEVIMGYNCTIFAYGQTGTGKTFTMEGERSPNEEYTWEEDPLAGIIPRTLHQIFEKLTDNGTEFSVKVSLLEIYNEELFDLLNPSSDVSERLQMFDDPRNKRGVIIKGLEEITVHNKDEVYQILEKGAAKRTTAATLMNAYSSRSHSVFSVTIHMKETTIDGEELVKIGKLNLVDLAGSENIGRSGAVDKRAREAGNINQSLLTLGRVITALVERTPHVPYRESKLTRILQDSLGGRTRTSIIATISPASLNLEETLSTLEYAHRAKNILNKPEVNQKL
Assay: Malachite Green Assay (Eg5 motor ATPase, phosphate liberated from ATP)
Format: biochemical
Method: Enzymatic activity of the Eg5 motor and effects of inhibitors was measured using a malchite green assay, which measures phosphate liberated from ATP, and has been used previously to measure the activity of kinesin motors (Hackney and Jiang, 2001). Enzyme was recombinant HsEg5 motor domain (amino acids 1-369-8His) and was added at a final concentration of 6 nM to 100 μl reactions. Buffer consisted of 25 mM PIPES/KOH, pH 6.8, 2 mM MgCl2, 1 mM EGTA, 1 mM dtt, 0.01% Triton X-100 and 5 μM paclitaxel. Malachite green/ammonium molybdate reagent was prepared as follows: for 800 ml final volume, 0.27 g of Malachite Green (J. T. Baker) was dissolved in 600 ml of H2O in a polypropylene bottle. […]
5 μl of compound diluted in 12% DMSO was added to the wells of 96 well plates. […] The reactions were then quenched by the addition of 150 μl malachite green/ammonium molybdate reagent, and absorbance read at 650 nanometers exactly 5 min after quench using a Spectramax Plus plate reader (Molecular Devices). Data was graphed and IC50s calculated using ExCel Fit (Microsoft).
Enzymatic activity of the Eg5 motor and effects of inhibitors was measured using a malachite green assay, which measures phosphate liberated from ATP, and has been used previously to measure the activity of kinesin motors (Hackney and Jiang, 2001). […] Data was graphed and IC50s calculated using ExCel Fit (Microsoft).

Row | SMILES | IC50
1 | CCC(c1nc2snc(C)c2c(=O)n1Cc1ccccc1)N(CCCN)C(=O)c1cccc(Cl)c1Cl (single isomer, unassigned; (+)) [Section 3: Example A7, (+) N-(3-Amino-propyl)-N-[1-(5-benzyl-3-methyl-4-oxo-4,5-dihydro-isothiazolo[5,4-d]pyrimidin-6-yl)-propyl]-2,3-dichloro-benzamide hydrogen chloride] | 136 nM
2 | CCC(c1nc2c(C)nsc2c(=O)n1Cc1ccccc1)N(CCCN)C(=O)c1ccc(C)cc1 (centres unmarked) [Section 2: Example E1, N-(3-Amino-propyl)-N-[1-(6-benzyl-3-methyl-7-oxo-6,7-dihydro-isothiazolo[4,5-d]pyrimidin-5-yl)-propyl]-4-methyl-benzamide hydrogen chloride] | 90 nM
